Assay: Release from post-loaded section of the drug delivery device (Example 5)
Type: physicochemical
Protocol: A central section of a self-retaining implantable drug delivery device disclosed herein was loaded with Travoprost by cutting a 3 mm section of the device and then placed into 0.200 mL of hexanes for 3 hours. Following this period, the self-retaining implantable drug delivery device was placed immediately into 0.050 mL of a Travoprost stock solution 25 mg/mL in ethanol and allowed to stand overnight. The following day, this section was washed sequentially by dipping into a water bath, followed by a 10% acetonitrile bath. It was dried at 80 C and set to release the following day. The section was allowed to release over a period of 38 days. The loading was determined to be approximately 13 mcg. […] This release profile is predicted by the Higuchi mechanism. This type of loading procedure we term post loading. The loaded section is coated with a poly(p-xylylene) polymer and two tiny holes are place completely through the section. The section is then molded together with the two flanking sections of the stent to form the final product. The release from this modified stent follows a near zero order release in vitro and in vivo in preclinical animal models and clinical studies.

Structure (SMILES): CC(C)OC(=O)CCC/C=C\C[C@@H]1[C@@H](/C=C/[C@@H](O)COc2cccc(C(F)(F)F)c2)[C@H](O)C[C@@H]1O [Travoprost]
- loading (3 mm device section post loaded from 25 mg/mL Travoprost in ethanol): approximately 13 mcg
- release at 38 days (post-loaded uncoated 3 mm section): 99%
- release profile (post-loaded uncoated 3 mm section, over 38 days): curvilinear/asymptotic profile

Reference: patent publication US20210169690A1, “Self-Retaining Implantable Drug Delivery Device” (GoldenBiotech, LLC, priority 2019, published 2021)
